Patent publication US6864253B2, “Benzo[4,5]thieno[2,3-c]pyridine and Benzo[4,5]furo[2,3-c]pyridine Derivatives Useful as Inhibitors of Phosphodiesterase” (Orth-McNeil Pharmaceutical, Inc., priority 2000, dated 2005)

These molecules were tested against PDEV (Oryctolagus cuniculus, UniProt G1SX67) (assay: Cyclic nucleotide phosphodiesterase (PDE) assay, inhibition of PDEV isolated from rabbit tissue). Settings: 10 μM test compound; rabbit PDEV.
Assay type: biochemical
Protocol: Briefly, rabbit or human tissues were homogenized in an ice-cold buffer solution containing 20 mM HEPES (pH 7.2), 0.25M sucrose, 1 mM EDTA, and 1 mM phenylmethylsulphonyl fluoride (PMSF). The homogenates were centrifuged at 100,000 g for 60 minutes at 4° C. The supernatant was filtered through […] filter and loaded on a Pharmacia Mono Q anion exchange column (1 ml bed volume) that was equilibrated with 20 mM HEPES, 1 mM EDTA and 0.5 mM PMSF. […] The fractions comprising various PDE activities were pooled separately and used in later studies.
The assays were adapted to a 96-well format. The enzyme was assayed in 5 mM MgCl2, 15 mM Tris HCl (pH 7.4), 0.5 mg/ml bovine serum albumin, 1 μM cGMP or cAMP, 0.1 μCi [^3H]-cGMP or [^3H]-cAMP, and 2-10 μl of column elution. The total volume of the assay was 100 μl. The reaction mixture was incubated at 30° C. for 30 minutes. The reaction was stopped by boiling for 1 minute and then cooled down on ice. The resulting [^3H] 5′-mononucleotides were further converted to uncharged [^3H]-nucleosides by adding 25 μl 1 mg/ml snake venom (Ophiophagus hannah) and incubating at 30° C. for 10 minute. The reaction was stopped by the addition of 1 ml Bio-Rad AG1-X2 resin slurry (1:3). All the charged nucleotides were bound by the resin and only the uncharged [^3H]-nucleosides remained in the supernatant after centrifuging. An aliquot of 200 μl was taken and counted by liquid scintillation. PDE activity was expressed as pmol cyclic nucleotide hydrolyzed/min/ml of enzyme preparation.
Inhibitor studies were carried out in assay buffer with a final concentration of 10% DMSO.

| Structure (SMILES) | % Inh @ 10 μM (rabbit) | % INH @ 10 μM (rabbit) |
| --- | --- | --- |
| COc1ccc(C2c3[nH]c4ccccc4c3CCN2C(=O)c2c(-c3ccccc3)noc2C)cc1 (racemic) [Cmpd 117] | 32% | – |
| COc1ccc(C2c3[nH]c4ccccc4c3CCN2C(=O)c2cnn(-c3ccccc3)c2C(F)(F)F)cc1OC (racemic) [Cmpd 121] | 10% | – |
| COc1ccc2cc(C(=O)N3CCc4c([nH]c5ccccc45)C3c3ccc4c(c3)OCO4)oc2c1 (stereo not drawn) [Cmpd 15] | 90% | – |
| N#Cc1ccc(C2c3[nH]c4ccccc4c3CCN2C(=O)c2ccc(-c3cccc([N+](=O)[O-])c3)o2)cc1 (stereo not drawn) [Cmpd 80] | 27% | – |
| O=C(O)Cn1c2c(c3ccccc31)CCN(C(=O)c1ccc(-c3cccc(C(F)(F)F)c3)o1)C2c1ccc2c(c1)OCO2 (stereo not drawn) [Cmpd 31] | 75% | – |
| COc1ccc(C2c3[nH]c4ccccc4c3CCN2C(=O)c2c(-c3ccccc3)noc2C)cc1OC (racemic) [Cmpd 110] | 32% | – |
| Cc1cc(C)cc(C2c3[nH]c4ccccc4c3CCN2C(=O)c2c(-c3ccccc3)noc2C)c1 (racemic) [Cmpd 113] | 29% | – |
| COc1ccc(C2c3[nH]c4ccccc4c3CCN2C(=O)c2cnn(-c3ccccc3)c2C(F)(F)F)cc1 (stereo not drawn) [Cmpd 130] | 45% | – |
| Clc1ccc(-c2cnc(N3CCc4c([nH]c5ccccc45)C3c3ccc4c(c3)OCO4)nc2)cc1 (stereo not drawn) [Cmpd 10] | 79% | – |
| CN(C)c1ccc(C2c3[nH]c4ccccc4c3CCN2C(=O)c2ccc(-c3cccc([N+](=O)[O-])c3)o2)cc1 (stereo not drawn) [Cmpd 83] | 27% | – |
| CC(=O)Nc1cccc(-c2ccc(C(=O)N3CCc4c([nH]c5ccccc45)C3c3ccc4c(c3)OCO4)o2)c1 (stereo not drawn) [Cmpd 55] | 70% | – |
| Cc1cc(C(=O)N2CCc3c([nH]c4ccccc34)C2c2ccc3c(c2)OCO3)nn1-c1ccccc1 (racemic) [Cmpd 106] | 70% | – |
| COC(=O)Cn1c2c(c3ccccc31)CCN(C(=O)c1ccc(-c3cccc(C(F)(F)F)c3)o1)C2c1ccc2c(c1)OCO2 (stereo not drawn) [Cmpd 25] | 20% | – |
| COc1ccc(C2c3[nH]c4ccccc4c3CCN2C(=O)c2cc(C(C)(C)C)nn2Cc2ccccc2)cc1 (stereo not drawn) [Cmpd 141] | 11% | – |
| CN(C)CCn1c2c(c3ccccc31)CCN(C(=O)c1ccc(-c3ccc([N+](=O)[O-])cc3)o1)C2c1ccc2c(c1)OCO2 (stereo not drawn) [Cmpd 37] | 95% | – |
| CC(C)(C)c1cc(C(=O)N2CCc3c([nH]c4ccccc34)C2c2ccc(C#N)cc2)n(Cc2ccccc2)n1 (stereo not drawn) [Cmpd 139] | −9% | – |
| O=S(=O)(c1ccccc1)c1ccsc1S(=O)(=O)N1CCc2c([nH]c3ccccc23)C1c1ccc2c(c1)OCO2 (stereo not drawn) [Cmpd 146] | 35% | – |
| Cc1ccc(-c2ccc(C(=O)N3CCc4c([nH]c5ccccc45)C3c3ccc4c(c3)OCO4)o2)c([N+](=O)[O-])c1 (stereo not drawn) [Cmpd 53] | 85% | – |
| N#Cc1ccc(C2c3[nH]c4ccccc4c3CCN2C(=O)c2cnn(-c3ccccc3)c2C(F)(F)F)cc1 (stereo not drawn) [Cmpd 128] | 11% | – |
| CN(C)CCn1c2c(c3ccccc31)CCN(C(=O)c1ccc(-c3cccc(C(F)(F)F)c3)o1)C2c1ccc2c(c1)OCO2 (stereo not drawn) [Cmpd 35] | 98% | – |
| O=C(O)C1Cc2c([nH]c3ccccc23)C(c2ccc3c(c2)OCO3)N1C(=O)c1ccc(-c2cccc([N+](=O)[O-])c2)o1 (stereo not drawn) [Cmpd 67] | 50% | – |

| Structure (SMILES) | % Inh @ 10 μM (rabbit) | % INH @ 10 μM (rabbit) |
| --- | --- | --- |
| O=C(c1ccc(-c2cccc(C(F)(F)F)c2)o1)N1CCc2c([nH]c3ccccc23)C1c1ccc([N+](=O)[O-])cc1 (stereo not drawn) [Cmpd 84] | 20% | – |
| O=C(O)Cn1c2c(c3ccccc31)CCN(C(=O)c1ccc(-c3cccc([N+](=O)[O-])c3)o1)C2c1ccc2c(c1)OCO2 (stereo not drawn) [Cmpd 30] | 93% | – |
| O=C(c1ccc(-c2cccc([N+](=O)[O-])c2)o1)N1CCc2c(n(C(=O)c3ccc(-c4cccc([N+](=O)[O-])c4)o3)c3ccccc23)C1c1ccc2c(c1)OC(F)(F)O2 (stereo not drawn) [Cmpd 19] | 15% | – |
| O=C(c1ccc(-c2cccc(C(F)(F)F)c2)o1)N1CCc2c(n(Cc3ccncc3)c3ccccc23)C1c1ccc2c(c1)OCO2 (stereo not drawn) [Cmpd 74] | 84% | – |
| Cc1cc(C(=O)N2CCc3c([nH]c4ccccc34)C2c2ccc(OCCCN(C)C)cc2)nn1-c1ccccc1 (racemic) [Cmpd 107] | 15% | – |
| CN(C)CCn1c2c(c3ccccc31)CCN(C(=O)c1ccc(-c3ccccc3[N+](=O)[O-])o1)C2c1ccc2c(c1)OCO2 (stereo not drawn) [Cmpd 41] | 93% | – |
| O=C(c1ccc(-c2cccc(C(F)(F)F)c2)o1)N1CCc2c(n(CCN3CCOCC3)c3ccccc23)C1c1ccc2c(c1)OCO2 (stereo not drawn) [Cmpd 28] | 94% | – |
| Cc1oc(-c2ccccc2)cc1C(=O)N1CCc2c([nH]c3ccccc23)C1c1ccc2c(c1)OCO2 (racemic) [Cmpd 104] | 72% | – |
| Cc1ccc(-c2cnc(N3CCc4c(n(-c5ncc(-c6ccc(C)cc6)cn5)c5ccccc45)C3c3ccc4c(c3)OCO4)nc2)cc1 (stereo not drawn) [Cmpd 166] | – | 58% |
| CN(C)CCn1c2c(c3ccccc31)CCN(C(=O)c1cc3ccccc3s1)C2c1ccc2c(c1)OCO2 (stereo not drawn) [Cmpd 17] | 88% | – |
| Cc1cc(C)cc(C2c3[nH]c4ccccc4c3CCN2C(=O)c2cc(C(C)(C)C)nn2Cc2ccccc2)c1 (stereo not drawn) [Cmpd 137] | −3% | – |
| CC(C)(C)c1cc(C(=O)N2CCc3c([nH]c4ccccc34)C2c2ccc(Cl)c(C(F)(F)F)c2)n(Cc2ccccc2)n1 (stereo not drawn) [Cmpd 138] | 13% | – |
| Cc1onc(-c2ccccc2)c1C(=O)N1CCc2c([nH]c3ccccc23)C1c1ccc2c(c1)OCO2 (racemic) [Cmpd 112] | 33% | – |
| O=C(c1ccc(-c2cccc([N+](=O)[O-])c2)o1)N1CCc2c([nH]c3ccccc23)C1c1ccc2c(c1)OC(F)(F)O2 (stereo not drawn) [Cmpd 21] | 32% | – |
| Cc1cc(C)cc(C2c3[nH]c4ccccc4c3CCN2C(=O)c2cnn(-c3ccccc3)c2C(F)(F)F)c1 (stereo not drawn) [Cmpd 126] | 12% | – |
| CN(C)CCn1c2c(c3ccccc31)CCN(c1ncc(-c3ccc(Cl)cc3)cn1)C2c1ccc2c(c1)OCO2 (stereo not drawn) [Cmpd 4] | 94% | – |
| O=C(c1cnn(-c2ccccc2)c1C(F)(F)F)N1CCc2c([nH]c3ccccc23)C1c1ccc(Cl)c(C(F)(F)F)c1 (stereo not drawn) [Cmpd 127] | 13% | – |
| O=C(c1cnn(-c2ccccc2)c1C(F)(F)F)N1CCc2c([nH]c3ccccc23)C1c1ccc(Cl)c(Cl)c1 (racemic) [Cmpd 120] | 18% | – |
| CC(C)(C)c1cc(C(=O)N2CCc3c([nH]c4ccccc34)C2c2ccc3c(c2)OCO3)n(Cc2ccccc2)n1 (stereo not drawn) [Cmpd 136] | 18% | – |
| CN(C)CCn1c2c(c3ccccc31)CCN(C(=O)c1ccc(-c3ccc(Cl)cc3)o1)C2c1ccc2c(c1)OCO2 (stereo not drawn) [Cmpd 39] | 93% | – |
| COC(=O)c1ccc(C2c3[nH]c4ccccc4c3CCN2C(=O)c2c(-c3ccccc3)noc2C)cc1 (racemic) [Cmpd 116] | 32% | – |

Same assay, conditions: 10 μM test compound; rabbit PDEV; 10 µM

| Structure (SMILES) | % INH @ 10 μM (rabbit) | % Inh @ 10 μM (rabbit) |
| --- | --- | --- |
| COc1ccc(-c2cnc(N3CC(O)c4c([nH]c5ccccc45)C3c3ccc4c(c3)OCO4)nc2)cc1 (stereo not drawn) [Cmpd 164] | 82% | – |
| O=C(c1ccc(-c2ccc(Cl)cc2[N+](=O)[O-])o1)N1CCc2c([nH]c3ccccc23)C1c1ccc2c(c1)OCO2 (stereo not drawn) [Cmpd 47] | – | 83% |

Same assay, conditions: 10 μM test compound; rabbit PDEV; read-out: % INH @ 10 μM (rabbit)

| Structure (SMILES) | inhibition at 10 µM |
| --- | --- |
| COc1ccc(-c2cnc(N3CCc4c(n(CCN5CCCC5)c5ccccc45)C3c3ccc4c(c3)OCO4)nc2)cc1 (stereo not drawn) [Cmpd 148] | 66% |
